Test results as given in ChEMBL document CHEMBL1133517, “Design, radiosynthesis, and biodistribution of a new potent and selective ligand for in vivo imaging of the adenosine A(2A) receptor system using positron emission tomography” (J Med Chem, 2000).

What was measured:
Rattus norvegicus [1] = species: Rattus norvegicus; experiment: Biodistribution in rat pons after 5 min time interval; assay type: ADME, organism-based; details: in vivo
Rattus norvegicus [2] = species: Rattus norvegicus; experiment: Biodistribution in rat adrenal after 60 min time interval; assay type: ADME, organism-based; details: in vivo, 1 h
Rattus norvegicus [3] = species: Rattus norvegicus; experiment: Biodistribution in rat muscle after 5 min time interval; assay type: ADME, organism-based, Muscle tissue; details: in vivo
Rattus norvegicus [4] = species: Rattus norvegicus; experiment: Biodistribution in rat blood after 30 min time interval; assay type: ADME, organism-based; details: in vivo, 0.5 h
Rattus norvegicus [5] = species: Rattus norvegicus; experiment: Biodistribution in rat lung after 15 min time interval; assay type: ADME, organism-based; details: in vivo, 0.25 h
Rattus norvegicus [6] = species: Rattus norvegicus; experiment: Biodistribution in rat kidney after 5 min time interval; assay type: ADME, organism-based; details: in vivo
Rattus norvegicus [7] = species: Rattus norvegicus; experiment: Biodistribution in rat hippocampus after 90 min time interval; assay type: ADME, organism-based; details: in vivo, 1.5 h
Rattus norvegicus [8] = species: Rattus norvegicus; experiment: Biodistribution in rat trachea after 90 min time interval; assay type: ADME, organism-based; details: in vivo, 1.5 h
Rattus norvegicus [9] = species: Rattus norvegicus; experiment: Biodistribution in rat muscle after 90 min time interval; assay type: ADME, organism-based, Muscle tissue; details: in vivo, 1.5 h
Rattus norvegicus [10] = species: Rattus norvegicus; experiment: Biodistribution in rat liver after 30 min time interval; assay type: ADME, organism-based; details: in vivo, 0.5 h
Rattus norvegicus [11] = species: Rattus norvegicus; experiment: Biodistribution in rat heart after 30 min time interval; assay type: ADME, organism-based; details: in vivo, 0.5 h
Rattus norvegicus [12] = species: Rattus norvegicus; experiment: Biodistribution in rat muscle after 30 min time interval; assay type: ADME, organism-based, Muscle tissue; details: in vivo, 0.5 h
Rattus norvegicus [13] = species: Rattus norvegicus; experiment: Biodistribution in rat heart after 5 min time interval; assay type: ADME, organism-based; details: in vivo
Rattus norvegicus [14] = species: Rattus norvegicus; experiment: Biodistribution in rat pons after 90 min time interval; assay type: ADME, organism-based; details: in vivo, 1.5 h
Rattus norvegicus [15] = species: Rattus norvegicus; experiment: Biodistribution in rat hippocampus after 15 min time interval; assay type: ADME, organism-based; details: in vivo, 0.25 h
Rattus norvegicus [16] = species: Rattus norvegicus; experiment: Biodistribution in rat pituitary after 30 min time interval; assay type: ADME, organism-based, Pituitary gland; details: in vivo, 0.5 h
Rattus norvegicus [17] = species: Rattus norvegicus; experiment: Biodistribution in rat liver after 60 min time interval; assay type: ADME, organism-based; details: in vivo, 1 h
Rattus norvegicus [18] = species: Rattus norvegicus; experiment: Biodistribution in rat plasma after 5 min time interval; assay type: ADME, organism-based; details: in vivo
Rattus norvegicus [19] = species: Rattus norvegicus; experiment: Biodistribution in rat lung after 5 min time interval; assay type: ADME, organism-based; details: in vivo
Rattus norvegicus [20] = species: Rattus norvegicus; experiment: Biodistribution in rat plasma after 90 min time interval; assay type: ADME, organism-based; details: in vivo, 1.5 h
Rattus norvegicus [21] = species: Rattus norvegicus; experiment: Biodistribution in rat spleen after 15 min time interval; assay type: ADME, organism-based; details: in vivo, 0.25 h
Rattus norvegicus [22] = species: Rattus norvegicus; experiment: Biodistribution in rat hippocampus after 30 min time interval; assay type: ADME, organism-based; details: in vivo, 0.5 h
Rattus norvegicus [23] = species: Rattus norvegicus; experiment: Biodistribution in rat hypothalamus after 90 min time interval; assay type: ADME, organism-based; details: in vivo, 1.5 h
Rattus norvegicus [24] = species: Rattus norvegicus; experiment: Biodistribution in rat lung after 30 min time interval; assay type: ADME, organism-based; details: in vivo, 0.5 h
Rattus norvegicus [25] = species: Rattus norvegicus; experiment: Biodistribution in rat kidney after 15 min time interval; assay type: ADME, organism-based; details: in vivo, 0.25 h
Rattus norvegicus [26] = species: Rattus norvegicus; experiment: Biodistribution in rat pituitary after 60 min time interval; assay type: ADME, organism-based, Pituitary gland; details: in vivo, 1 h
Rattus norvegicus [27] = species: Rattus norvegicus; experiment: Biodistribution in rat hippocampus after 60 min time interval; assay type: ADME, organism-based; details: in vivo, 1 h
Rattus norvegicus [28] = species: Rattus norvegicus; experiment: Biodistribution in rat thalamus after 30 min time interval; assay type: ADME, organism-based; details: in vivo, 0.5 h
Rattus norvegicus [29] = species: Rattus norvegicus; experiment: Biodistribution in rat adrenal after 30 min time interval; assay type: ADME, organism-based; details: in vivo, 0.5 h
Rattus norvegicus [30] = species: Rattus norvegicus; experiment: Biodistribution in rat spleen after 60 min time interval; assay type: ADME, organism-based; details: in vivo, 1 h
Rattus norvegicus [31] = species: Rattus norvegicus; experiment: Biodistribution in rat testes after 30 min time interval; assay type: ADME, organism-based, Testis; details: in vivo, 0.5 h
Rattus norvegicus [32] = species: Rattus norvegicus; experiment: Biodistribution in rat pons after 60 min time interval; assay type: ADME, organism-based; details: in vivo, 1 h
Rattus norvegicus [33] = species: Rattus norvegicus; experiment: Biodistribution in rat intestine after 90 min time interval; assay type: ADME, organism-based; details: in vivo, 1.5 h
Rattus norvegicus [34] = species: Rattus norvegicus; experiment: Biodistribution in rat heart after 60 min time interval; assay type: ADME, organism-based; details: in vivo, 1 h
Rattus norvegicus [35] = species: Rattus norvegicus; experiment: Biodistribution in rat adrenal after 5 min time interval; assay type: ADME, organism-based; details: in vivo
Rattus norvegicus [36] = species: Rattus norvegicus; experiment: Biodistribution in rat blood after 90 min time interval; assay type: ADME, organism-based; details: in vivo, 1.5 h
Rattus norvegicus [37] = species: Rattus norvegicus; experiment: Biodistribution in rat striatum after 5 min time interval; assay type: ADME, organism-based; details: in vivo
Rattus norvegicus [38] = species: Rattus norvegicus; experiment: Biodistribution in rat lung after 60 min time interval; assay type: ADME, organism-based; details: in vivo, 1 h
Rattus norvegicus [39] = species: Rattus norvegicus; experiment: Biodistribution in rat striatum after 60 min time interval; assay type: ADME, organism-based; details: in vivo, 1 h
Rattus norvegicus [40] = species: Rattus norvegicus; experiment: Biodistribution in rat intestine after 15 min time interval; assay type: ADME, organism-based; details: in vivo, 0.25 h
Rattus norvegicus [41] = species: Rattus norvegicus; experiment: Biodistribution in rat plasma after 30 min time interval; assay type: ADME, organism-based; details: in vivo, 0.5 h
Rattus norvegicus [42] = species: Rattus norvegicus; experiment: Biodistribution in rat plasma after 15 min time interval; assay type: ADME, organism-based; details: in vivo, 0.25 h
Rattus norvegicus [43] = species: Rattus norvegicus; experiment: Biodistribution in rat muscle after 15 min time interval; assay type: ADME, organism-based, Muscle tissue; details: in vivo, 0.25 h
Rattus norvegicus [44] = species: Rattus norvegicus; experiment: Biodistribution in rat thalamus after 5 min time interval; assay type: ADME, organism-based; details: in vivo
Rattus norvegicus [45] = species: Rattus norvegicus; experiment: Biodistribution in rat striatum after 90 min time interval; assay type: ADME, organism-based; details: in vivo, 1.5 h
Rattus norvegicus [46] = species: Rattus norvegicus; experiment: Biodistribution in rat kidney after 30 min time interval; assay type: ADME, organism-based; details: in vivo, 0.5 h
Rattus norvegicus [47] = species: Rattus norvegicus; experiment: Biodistribution in rat kidney after 60 min time interval; assay type: ADME, organism-based; details: in vivo, 1 h
Rattus norvegicus [48] = species: Rattus norvegicus; experiment: Biodistribution in rat hypothalamus after 5 min time interval; assay type: ADME, organism-based; details: in vivo
Rattus norvegicus [49] = species: Rattus norvegicus; experiment: Biodistribution in rat pons after 30 min time interval; assay type: ADME, organism-based; details: in vivo, 0.5 h
Rattus norvegicus [50] = species: Rattus norvegicus; experiment: Biodistribution in rat plasma after 60 min time interval; assay type: ADME, organism-based; details: in vivo, 1 h

[11CH3]Oc1ccc(CCCn2ncc3c2nc(N)n2nc(-c4ccco4)nc32)cc1
ID/g (Rattus norvegicus [1]): 0.2%
ID/g (Rattus norvegicus [2]): 0.13%
ID/g (Rattus norvegicus [3]): 0.15%
ID/g (Rattus norvegicus [4]): 0.06%
ID/g (Rattus norvegicus [5]): 0.52%
ID/g (Rattus norvegicus [6]): 0.69%
ID/g (Rattus norvegicus [7]): 0.02%
ID/g (Rattus norvegicus [8]): 0.03%
ID/g (Rattus norvegicus [9]): 0.02%
ID/g (Rattus norvegicus [10]): 0.52%
ID/g (Rattus norvegicus [11]): 0.09%
ID/g (Rattus norvegicus [12]): 0.05%
ID/g (Rattus norvegicus [13]): 0.26%
ID/g (Rattus norvegicus [14]): 0.02%
ID/g (Rattus norvegicus [15]): 0.09%
ID/g (Rattus norvegicus [16]): 0.05%
ID/g (Rattus norvegicus [17]): 0.36%
ID/g (Rattus norvegicus [18]): 0.19%
ID/g (Rattus norvegicus [19]): 0.38%
ID/g (Rattus norvegicus [20]): 0.07%
ID/g (Rattus norvegicus [21]): 0.12%
ID/g (Rattus norvegicus [22]): 0.04%
ID/g (Rattus norvegicus [23]): 0.02%
ID/g (Rattus norvegicus [24]): 0.2%
ID/g (Rattus norvegicus [25]): 0.49%
ID/g (Rattus norvegicus [26]): 0.02%
ID/g (Rattus norvegicus [27]): 0.02%
ID/g (Rattus norvegicus [28]): 0.05%
ID/g (Rattus norvegicus [29]): 0.25%
ID/g (Rattus norvegicus [30]): 0.06%
ID/g (Rattus norvegicus [31]): 0.23%
ID/g (Rattus norvegicus [32]): 0.02%
ID/g (Rattus norvegicus [33]): 0.16%
ID/g (Rattus norvegicus [34]): 0.04%
ID/g (Rattus norvegicus [35]): 0.85%
ID/g (Rattus norvegicus [36]): 0.05%
ID/g (Rattus norvegicus [37]): 0.43%
ID/g (Rattus norvegicus [38]): 0.37%
ID/g (Rattus norvegicus [39]): 0.06%
ID/g (Rattus norvegicus [40]): 0.28%
ID/g (Rattus norvegicus [41]): 0.08%
ID/g (Rattus norvegicus [42]): 0.13%
ID/g (Rattus norvegicus [43]): 0.11%
ID/g (Rattus norvegicus [44]): 0.2%
ID/g (Rattus norvegicus [45]): 0.04%
ID/g (Rattus norvegicus [46]): 0.24%
ID/g (Rattus norvegicus [47]): 0.13%
ID/g (Rattus norvegicus [48]): 0.16%
ID/g (Rattus norvegicus [49]): 0.06%
ID/g (Rattus norvegicus [50]): 0.07%
